Laboratory results as given in ChEMBL document CHEMBL1201862, “PubChem BioAssay data set” (2004).
Blank lines part the entries; values can stand above or below the compound they belong to. The source made the active and inactive calls.

What was measured:
Fatty acid synthase [1] = target: T1, Fatty acid synthase (Homo sapiens, UniProt P49327); test: inhibition of human FAS-TE enzyme activity – biochemical, endpoint fluorescence intensity, uHTS hits, dose response (AID 624327); type: functional;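 also: fluorescence from hydrolysis of an O-methyl fluorescein acyl ester substrate by the enzyme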
T1 sequence (P49327 whole entry): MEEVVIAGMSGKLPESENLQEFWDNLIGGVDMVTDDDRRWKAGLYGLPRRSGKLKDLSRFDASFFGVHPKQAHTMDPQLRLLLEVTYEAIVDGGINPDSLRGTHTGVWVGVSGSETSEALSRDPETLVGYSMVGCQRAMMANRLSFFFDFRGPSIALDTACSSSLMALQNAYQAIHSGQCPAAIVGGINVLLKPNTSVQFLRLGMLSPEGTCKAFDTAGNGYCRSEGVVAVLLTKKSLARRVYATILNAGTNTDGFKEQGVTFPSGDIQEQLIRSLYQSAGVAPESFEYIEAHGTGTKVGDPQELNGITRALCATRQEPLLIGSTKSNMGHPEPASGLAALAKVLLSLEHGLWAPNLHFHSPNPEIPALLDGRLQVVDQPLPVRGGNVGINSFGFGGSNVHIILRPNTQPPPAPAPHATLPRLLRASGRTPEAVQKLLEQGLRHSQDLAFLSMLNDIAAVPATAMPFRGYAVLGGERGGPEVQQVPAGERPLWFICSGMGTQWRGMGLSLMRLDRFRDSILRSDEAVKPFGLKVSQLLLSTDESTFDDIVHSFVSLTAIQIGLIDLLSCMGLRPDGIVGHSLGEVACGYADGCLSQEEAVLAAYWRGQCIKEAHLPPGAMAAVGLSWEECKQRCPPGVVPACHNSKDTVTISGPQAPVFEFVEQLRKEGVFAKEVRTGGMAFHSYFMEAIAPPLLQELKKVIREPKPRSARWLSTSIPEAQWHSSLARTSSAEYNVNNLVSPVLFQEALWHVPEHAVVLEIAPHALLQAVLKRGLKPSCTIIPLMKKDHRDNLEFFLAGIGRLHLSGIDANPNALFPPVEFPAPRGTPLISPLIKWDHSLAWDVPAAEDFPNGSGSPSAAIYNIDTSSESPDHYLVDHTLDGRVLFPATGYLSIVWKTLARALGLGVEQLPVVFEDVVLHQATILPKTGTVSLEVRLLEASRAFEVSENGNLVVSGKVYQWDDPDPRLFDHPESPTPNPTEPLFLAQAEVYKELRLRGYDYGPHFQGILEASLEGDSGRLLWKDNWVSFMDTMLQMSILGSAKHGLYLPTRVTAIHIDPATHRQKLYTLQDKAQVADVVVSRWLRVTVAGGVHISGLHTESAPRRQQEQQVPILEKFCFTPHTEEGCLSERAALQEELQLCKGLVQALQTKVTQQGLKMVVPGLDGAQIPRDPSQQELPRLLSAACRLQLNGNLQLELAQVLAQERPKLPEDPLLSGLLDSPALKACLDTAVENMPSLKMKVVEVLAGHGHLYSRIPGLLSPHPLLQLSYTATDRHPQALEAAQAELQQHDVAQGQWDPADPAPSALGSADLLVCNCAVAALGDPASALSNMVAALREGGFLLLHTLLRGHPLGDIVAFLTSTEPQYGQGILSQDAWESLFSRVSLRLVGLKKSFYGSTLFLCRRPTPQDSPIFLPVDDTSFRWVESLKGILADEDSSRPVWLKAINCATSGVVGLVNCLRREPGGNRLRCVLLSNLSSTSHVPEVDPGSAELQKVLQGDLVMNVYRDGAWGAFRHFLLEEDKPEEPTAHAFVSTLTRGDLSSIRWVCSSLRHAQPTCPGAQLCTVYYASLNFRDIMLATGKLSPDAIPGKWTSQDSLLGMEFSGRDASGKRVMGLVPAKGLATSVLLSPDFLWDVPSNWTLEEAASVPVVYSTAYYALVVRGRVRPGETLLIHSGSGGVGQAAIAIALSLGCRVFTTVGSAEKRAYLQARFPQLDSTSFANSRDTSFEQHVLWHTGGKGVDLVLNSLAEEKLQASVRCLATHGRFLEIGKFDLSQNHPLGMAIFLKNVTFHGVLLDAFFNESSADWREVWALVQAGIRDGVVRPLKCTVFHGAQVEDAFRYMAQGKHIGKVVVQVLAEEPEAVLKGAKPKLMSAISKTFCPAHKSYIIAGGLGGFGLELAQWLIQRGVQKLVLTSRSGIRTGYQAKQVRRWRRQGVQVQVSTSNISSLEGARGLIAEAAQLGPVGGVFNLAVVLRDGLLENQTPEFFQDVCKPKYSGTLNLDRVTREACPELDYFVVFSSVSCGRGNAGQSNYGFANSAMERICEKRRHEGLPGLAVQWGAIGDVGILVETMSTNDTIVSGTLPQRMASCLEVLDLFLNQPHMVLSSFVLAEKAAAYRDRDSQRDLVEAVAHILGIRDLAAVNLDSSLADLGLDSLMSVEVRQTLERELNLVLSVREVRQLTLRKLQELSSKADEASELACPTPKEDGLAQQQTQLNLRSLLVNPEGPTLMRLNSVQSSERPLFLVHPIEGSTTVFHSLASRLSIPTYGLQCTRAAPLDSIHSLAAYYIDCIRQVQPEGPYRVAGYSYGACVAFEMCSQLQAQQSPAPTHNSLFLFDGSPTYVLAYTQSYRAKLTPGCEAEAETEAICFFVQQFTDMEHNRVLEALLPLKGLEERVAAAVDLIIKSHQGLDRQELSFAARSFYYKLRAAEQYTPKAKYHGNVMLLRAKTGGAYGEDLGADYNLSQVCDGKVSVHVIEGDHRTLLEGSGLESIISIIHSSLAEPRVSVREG

Fatty acid synthase [2] = target: T1, Fatty acid synthase; test: inhibition of human FAS-TE enzyme activity – biochemical, kinetic fluorescence intensity, dose response (AID 624326); type: functional;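 also: rate of fluorescence rise from hydrolysis of a fluorogenic O-methyl fluorescein ester substrate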
[3] = Luminescence Cell-Based Dose Confirmation HTS to Identify Inhibitors of Platelet Dense Granule Release. [Related pubchem assays: 1663 (Primary HTS), 1678 (Summary of Project)]; type: functional
[4] = target: Luciferin 4-monooxygenase (Photinus pyralis, UniProt P08659); test: inhibition of purified Photinus pyralis luciferase – biochemical, luminescence, dose response (AID 1891)
Chain of Luciferin 4-monooxygenase (P08659 whole entry): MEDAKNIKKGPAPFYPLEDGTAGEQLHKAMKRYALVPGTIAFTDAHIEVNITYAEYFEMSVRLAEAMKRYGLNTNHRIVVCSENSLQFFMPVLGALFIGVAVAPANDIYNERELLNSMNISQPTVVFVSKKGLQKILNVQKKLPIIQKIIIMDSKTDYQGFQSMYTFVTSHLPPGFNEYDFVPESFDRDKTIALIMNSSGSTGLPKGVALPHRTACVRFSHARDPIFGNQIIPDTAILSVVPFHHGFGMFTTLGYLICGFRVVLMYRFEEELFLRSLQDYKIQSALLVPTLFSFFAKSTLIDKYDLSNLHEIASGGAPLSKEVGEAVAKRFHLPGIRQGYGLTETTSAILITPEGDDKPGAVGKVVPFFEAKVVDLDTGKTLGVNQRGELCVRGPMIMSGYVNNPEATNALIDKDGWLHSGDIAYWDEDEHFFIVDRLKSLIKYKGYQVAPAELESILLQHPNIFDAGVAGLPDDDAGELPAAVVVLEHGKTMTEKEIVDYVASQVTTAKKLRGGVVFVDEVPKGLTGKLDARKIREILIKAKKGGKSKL

Genome polyprotein = Genome polyprotein (dengue virus type 2, UniProt P29990); test: flavivirus cap methylation enzyme inhibition – biochemical, confirmation dose response, primary screen (AID 588689); type: functional
[5] = target: Mitogen-activated protein kinase 10 (Homo sapiens, UniProt P53779); test: Dose response biochemical screening assay for inhibitors of c-Jun N-Terminal Kinase 3 (JNK3). [Related pubchem assays: 746 ]
Chain of Mitogen-activated protein kinase 10 (P53779 whole entry): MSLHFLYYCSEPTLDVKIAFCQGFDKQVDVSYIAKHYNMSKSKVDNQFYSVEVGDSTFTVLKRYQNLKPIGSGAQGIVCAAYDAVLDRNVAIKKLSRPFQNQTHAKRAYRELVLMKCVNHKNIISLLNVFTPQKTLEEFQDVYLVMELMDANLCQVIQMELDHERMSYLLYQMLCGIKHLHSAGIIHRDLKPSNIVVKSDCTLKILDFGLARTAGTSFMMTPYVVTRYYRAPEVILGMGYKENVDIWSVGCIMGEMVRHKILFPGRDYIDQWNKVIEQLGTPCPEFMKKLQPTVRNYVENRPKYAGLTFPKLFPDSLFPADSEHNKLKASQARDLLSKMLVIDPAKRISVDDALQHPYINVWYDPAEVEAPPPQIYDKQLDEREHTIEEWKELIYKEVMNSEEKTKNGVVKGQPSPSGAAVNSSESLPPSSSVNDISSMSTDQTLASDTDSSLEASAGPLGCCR

Hexokinase HKDC1 = target: T2, Hexokinase HKDC1 (Homo sapiens, UniProt Q2TB90); test: inhibition of HKDC1 glucose phosphorylation – biochemical, W721R variant, dose response (AID 504729); type: functional
T2 sequence (Q2TB90 whole entry): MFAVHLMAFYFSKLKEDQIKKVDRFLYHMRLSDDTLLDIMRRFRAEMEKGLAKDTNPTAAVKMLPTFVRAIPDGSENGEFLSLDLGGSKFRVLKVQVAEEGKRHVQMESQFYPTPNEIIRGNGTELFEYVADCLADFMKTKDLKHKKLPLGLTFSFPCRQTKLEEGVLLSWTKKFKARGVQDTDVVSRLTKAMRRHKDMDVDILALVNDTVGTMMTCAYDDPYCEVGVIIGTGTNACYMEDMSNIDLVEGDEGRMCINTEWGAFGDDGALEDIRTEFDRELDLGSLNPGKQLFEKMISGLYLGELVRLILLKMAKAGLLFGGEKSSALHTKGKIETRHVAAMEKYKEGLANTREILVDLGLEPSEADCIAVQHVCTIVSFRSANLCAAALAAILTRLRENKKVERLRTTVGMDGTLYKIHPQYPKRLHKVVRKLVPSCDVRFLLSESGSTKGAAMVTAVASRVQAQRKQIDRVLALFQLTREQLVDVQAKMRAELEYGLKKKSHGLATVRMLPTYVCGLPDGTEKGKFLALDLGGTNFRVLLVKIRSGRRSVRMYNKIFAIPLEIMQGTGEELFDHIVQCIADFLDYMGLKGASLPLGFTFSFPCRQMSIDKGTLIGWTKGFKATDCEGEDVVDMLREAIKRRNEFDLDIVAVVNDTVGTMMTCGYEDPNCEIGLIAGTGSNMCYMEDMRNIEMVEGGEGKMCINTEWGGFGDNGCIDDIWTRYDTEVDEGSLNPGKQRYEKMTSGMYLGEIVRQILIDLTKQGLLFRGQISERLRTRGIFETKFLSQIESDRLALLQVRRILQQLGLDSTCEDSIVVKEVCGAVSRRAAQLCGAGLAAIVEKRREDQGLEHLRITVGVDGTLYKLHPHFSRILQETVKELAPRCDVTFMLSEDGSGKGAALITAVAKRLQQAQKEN

Cytochrome P450 2C19 = Cytochrome P450 2C19 (Homo sapiens, UniProt P33261); test: Cytochrome panel assay with activity outcomes. Panel member name: p450-cyp2c19 Compounds with AC50 equal or less than 10 uM are considered active; type: functional; conditions: read-out: AC50
Chain of Cytochrome P450 2C19 (P33261 whole entry): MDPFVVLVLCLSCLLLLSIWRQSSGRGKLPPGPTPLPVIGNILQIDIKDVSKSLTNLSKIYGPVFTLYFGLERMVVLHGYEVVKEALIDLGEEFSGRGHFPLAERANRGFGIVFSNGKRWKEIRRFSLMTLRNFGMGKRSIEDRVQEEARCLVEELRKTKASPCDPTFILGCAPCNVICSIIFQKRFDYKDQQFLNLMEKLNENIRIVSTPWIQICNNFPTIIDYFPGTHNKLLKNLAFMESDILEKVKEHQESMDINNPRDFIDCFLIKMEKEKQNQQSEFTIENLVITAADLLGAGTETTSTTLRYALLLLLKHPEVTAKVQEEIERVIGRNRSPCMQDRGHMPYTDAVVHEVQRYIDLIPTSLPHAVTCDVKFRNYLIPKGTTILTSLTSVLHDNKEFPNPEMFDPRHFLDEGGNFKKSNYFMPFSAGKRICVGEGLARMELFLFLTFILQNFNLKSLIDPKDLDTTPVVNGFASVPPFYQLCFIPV

Cytochrome P450 2C9 = Cytochrome P450 2C9 (Homo sapiens, UniProt P11712)
Chain of Cytochrome P450 2C9 (P11712 whole entry): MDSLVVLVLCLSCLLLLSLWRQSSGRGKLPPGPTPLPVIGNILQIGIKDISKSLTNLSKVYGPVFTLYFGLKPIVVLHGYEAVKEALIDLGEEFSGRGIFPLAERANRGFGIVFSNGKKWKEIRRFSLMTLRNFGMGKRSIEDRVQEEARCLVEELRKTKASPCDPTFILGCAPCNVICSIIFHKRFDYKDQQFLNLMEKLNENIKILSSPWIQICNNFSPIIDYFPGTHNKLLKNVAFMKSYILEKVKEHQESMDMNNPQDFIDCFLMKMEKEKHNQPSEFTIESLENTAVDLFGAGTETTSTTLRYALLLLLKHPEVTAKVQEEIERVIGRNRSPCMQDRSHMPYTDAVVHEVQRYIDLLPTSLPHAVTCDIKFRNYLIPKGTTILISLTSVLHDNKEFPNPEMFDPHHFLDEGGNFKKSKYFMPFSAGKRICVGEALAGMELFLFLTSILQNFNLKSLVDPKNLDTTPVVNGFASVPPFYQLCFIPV

HEK293 = test: EBV LMP1 TES2 canonical NF-kB signalling blockers – cell-based, HEK293, luciferase, cherry-pick, dose response (AID 588343); type: functional; conditions: Homo sapiens
[6] = target: Dual specificity tyrosine-phosphorylation-regulated kinase 1A (Rattus norvegicus, UniProt Q63470); type: biochemical, Homo sapiens
[7] = target: FAD-linked sulfhydryl oxidase ALR (Homo sapiens, UniProt P55789); test: ALR-catalysed DTT oxidation blockers – biochemical, H2O2 detection, luminescence, cherry-pick, dose response (AID 493248)
Cytochrome P450 1A2 = target: T3, Cytochrome P450 1A2 (Homo sapiens, UniProt P05177);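 also: PubChem cytochrome P450 panel assay, CYP1A2 panel member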
T3 sequence (P05177 whole entry): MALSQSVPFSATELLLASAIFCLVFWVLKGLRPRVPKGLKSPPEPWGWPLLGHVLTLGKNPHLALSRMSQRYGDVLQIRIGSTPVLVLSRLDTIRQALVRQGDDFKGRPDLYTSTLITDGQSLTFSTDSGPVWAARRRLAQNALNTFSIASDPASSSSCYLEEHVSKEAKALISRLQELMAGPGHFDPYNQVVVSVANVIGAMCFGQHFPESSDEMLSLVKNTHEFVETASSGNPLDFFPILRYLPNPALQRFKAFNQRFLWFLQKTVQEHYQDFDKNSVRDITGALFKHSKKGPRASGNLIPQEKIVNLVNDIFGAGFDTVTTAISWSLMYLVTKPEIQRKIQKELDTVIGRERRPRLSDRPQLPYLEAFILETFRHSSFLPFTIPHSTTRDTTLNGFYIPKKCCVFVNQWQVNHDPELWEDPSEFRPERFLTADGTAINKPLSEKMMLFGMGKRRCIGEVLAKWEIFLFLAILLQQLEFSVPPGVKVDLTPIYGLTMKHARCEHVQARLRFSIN

Cytochrome P450 3A4 = Cytochrome P450 3A4 (Homo sapiens, UniProt P08684);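 also: CYP3A4 tested as one member of a cytochrome P450 panel screen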
Chain of Cytochrome P450 3A4 (P08684 whole entry): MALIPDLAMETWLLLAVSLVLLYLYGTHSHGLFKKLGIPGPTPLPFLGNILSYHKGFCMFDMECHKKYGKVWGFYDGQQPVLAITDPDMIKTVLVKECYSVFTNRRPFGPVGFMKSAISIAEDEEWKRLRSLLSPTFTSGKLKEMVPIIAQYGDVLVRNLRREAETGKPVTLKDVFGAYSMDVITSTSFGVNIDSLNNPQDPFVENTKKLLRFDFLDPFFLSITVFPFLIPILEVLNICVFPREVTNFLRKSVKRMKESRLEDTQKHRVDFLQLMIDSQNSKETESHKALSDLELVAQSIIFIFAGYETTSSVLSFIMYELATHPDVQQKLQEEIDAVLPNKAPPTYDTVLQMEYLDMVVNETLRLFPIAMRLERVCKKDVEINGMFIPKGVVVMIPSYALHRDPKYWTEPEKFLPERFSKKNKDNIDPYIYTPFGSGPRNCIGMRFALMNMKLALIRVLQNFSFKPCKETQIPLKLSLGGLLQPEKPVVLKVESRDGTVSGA

SMILES: O=C1c2ccccc2C(=O)N1OS(=O)(=O)c1ccc(F)cc1
EC50 [3]: > 56.1 µM (not active)
IC50 (Fatty acid synthase [1]): 5.85 µM (active)
EC50 [4]: > 112 µM (not active)
IC50 (Fatty acid synthase [2]): 3.91 µM (active)
IC50 (Genome polyprotein): > 100 µM (active)

SMILES: CCc1cc(=O)oc2cc(C)cc(OC(=O)c3ccco3)c12
IC50 [5]: > 93.1 µM (not active)

SMILES: CCCc1nc2oc3c(OC)ncnc3c2c2c1COC(C)(C)C2
IC50 (Hexokinase HKDC1): 23 µM (inactive)

SMILES: C[C@@]12CC[C@@H]3c4ccc(O)cc4CC[C@H]3[C@H]1C[C@@H](O)[C@H]2O
AC50 (Cytochrome P450 2C19): 7.94 µM (inconclusive)
AC50 (Cytochrome P450 2C9): inconclusive

SMILES: CC(=O)Nc1nc(C)c(-c2csc(Nc3ccc(O)cc3)n2)s1
AC50 (HEK293): 3.85 µM (active)
AC50 [6]: 0.988 µM (active)
IC50 [5]: > 93.1 µM (not active)
AC50 [7]: 0.17 µM (active)

SMILES: Cc1ccc(NC(=O)c2sc3ncnc(O)c3c2C)c(C)c1
AC50 (Cytochrome P450 2C19): 14.1 µM (inconclusive)
AC50 (Cytochrome P450 2C9): inconclusive
AC50 (Cytochrome P450 1A2): 14.1 µM (inconclusive)
AC50 (Cytochrome P450 3A4): 15.8 µM (inconclusive)

Next, values leading:

IC50 (Fatty acid synthase [1]): 24.7 µM (inactive)
IC50 (Fatty acid synthase [2]): 15 µM (active)
SMILES: O=[N+]([O-])c1ccc(NC(S)=NCCc2ccccc2)cc1

IC50 (Fatty acid synthase [1]): 7.76 µM (active)
IC50 (Fatty acid synthase [2]): 5.76 µM (active)
SMILES: COc1ccc(C(=O)N/C(=C\c2ccc([N+](=O)[O-])cc2)C(=O)NC(CCSC)C(=O)O)cc1 (centres undefined)

IC50 (Fatty acid synthase [1]): 12.4 µM (active)
IC50 (Fatty acid synthase [2]): 13 µM (active)
SMILES: COc1ccc(C2=NN(CN3C(=O)C(=O)c4ccccc43)C(c3cccc([N+](=O)[O-])c3)C2)cc1 (centres undefined)

IC50 [5]: 55.2 µM (not active)
SMILES: COc1cccc(OCC(=O)Nc2ccccc2C(N)=O)c1

IC50 (Hexokinase HKDC1): 6.43 µM (active)
SMILES: CCCc1nc2c(c(=O)c3ccccc3n2C)c(=O)n1-c1ccc(F)cc1

IC50 (Fatty acid synthase [1]): 1.17 µM (active)
IC50 (Fatty acid synthase [2]): 1.37 µM (active)
SMILES: COc1ccc(CNC(=O)/C=C/c2cc([N+](=O)[O-])ccc2OC(F)F)cc1

AC50 (Cytochrome P450 2C9): inconclusive
AC50 (Cytochrome P450 1A2): 25.1 µM (inconclusive)
SMILES: CCn1c(COc2ccccc2)nnc1SCC(=O)Nc1cc(OC)ccc1OC
